System: sera from patients infected with group O HIV-1 retroviruses
Test: Immunoenzymatic test: Test No. 1 (immunoreactivity of peptides coated on microplates)
Type: binding, human
Design: key to ABSORBANCE: >: signal greater than the reading capacity of the spectrophotometer
Settings: for ABSORBANCE: cyclized peptide 2 μg/ml
Protocol: The sera used ESS, DUR, VAU and HAD are sera from French patients infected with group O HIV-1 retroviruses. The other serum samples from patients infected with group O HIV-1 retroviruses were obtained by the Yaoundé Pasteur Centre in Cameroon and were serotyped group O according to the serological algorithm described in AIDS (1977), 11, pp 445-453.
The HIV-negative sera (n=48) were obtained from healthy volunteers.
The synthetic peptides used were dissolved in water at a concentration of 1 mg/ml (stock solution). For the solid phase sensitization step (coating), 110 μl of a solution at 2 μg/ml of each peptide (obtained by diluting the stock solution with 0.1 M carbonate buffer solution) were added to each well of the microtitre plates Microtiter™ (NUNC). After incubating overnight at room temperature, the microplates were first washed with a Tris-NaCl buffer solution pH 7.4 containing 0.1% of Tween® 20 and 0.001% sodium merthiolate, and then saturated with a PBS solution containing 0.5% of Régilait™ (dried skimmed milk). After aspirating the saturating solution, the plates were heated for 10 min at 50° C.
The serum samples were diluted 1/5 with a skimmed milk solution (citrate buffer supplemented with 0.01% of phenol red, 0.25% of chloroform and 0.25% of Kathon®), deposited in the wells of the plates and incubated for 30 min at 40° C.
After washing with a Tris-NaCl buffer solution pH 7.4 containing 0.1% of Tween® 20 and 0.001% of sodium merthiolate, 100 μl of a solution of conjugate consisting of horseradish peroxidase-labelled anti-human IgG and IgM goat antibodies, containing as preservative 0.01% of sodium merthiolate, in solution in a citrate buffer solution supplemented with 30% glycerol and 25% normal foetal calf serum, were added to each plate well and then the plates were incubated for 30 min at 40° C.
After washing with a Tris-NaCl buffer solution pH 7.4 containing 0.1% of Tween® 20 and 0.001% of sodium merthiolate, the colour was developed by adding, to each well, 100 μl of O-phenylenediamine in solution in hydrogen peroxide. The microplates were then incubated for 30 min at room temperature and in the dark. The coloured reaction was then stopped by addition of 100 μl of 4N sulphuric acid. The absorbance (A) was determined at 490 and 620 nm.
The relative absorbance (A490-A620) read in each well is proportional to the immunoreactivity of each peptide. It indicates the ability of each peptide to react with the biological sample with which the test is carried out. The cut-off value was determined as being an absorbance equal to 0.15. It corresponds to the mean of the negative values (n=48) plus 12 standard deviations.
The reactivity of the peptides of the invention (peptide No. 3 (4B), peptide No. 2 (3B) and peptide No. 1 (2B), all in cyclized form), was compared with that of two synthetic peptides having, as sequence, a portion of the natural sequence of the envelope (env) of the VAU isolate (group O HIV-1 retrovirus) and comprising an immunodominant epitope of gp41.
For the study, these peptides were used in cyclized form.

LLSLWGCRGRLVCYTSVQWNET [PEPTIDE No. 2 (3B)]
ABSORBANCE (serum 134): > | ABSORBANCE (serum 402): > | ABSORBANCE (serum 625): > | ABSORBANCE (serum 1062): > | ABSORBANCE (serum 1105*): 1.031 | ABSORBANCE (serum 1581): > | ABSORBANCE (serum 1702): > | ABSORBANCE (serum 1754): > | ABSORBANCE (serum 2294): > | ABSORBANCE (serum 2312): > | ABSORBANCE (serum 2313): > | ABSORBANCE (serum 2352): > | ABSORBANCE (serum 2551): > | ABSORBANCE (serum 2700): 0.274 | ABSORBANCE (serum 3016): > | ABSORBANCE (serum 3136): 0.992 | ABSORBANCE (serum 3235): > | ABSORBANCE (serum 3236): > | ABSORBANCE (serum 3302): > | ABSORBANCE (serum 3482): > | ABSORBANCE (serum 3529): > | ABSORBANCE (serum 3600*): > | ABSORBANCE (serum 3627*): > | ABSORBANCE (serum 3637): > | ABSORBANCE (serum 3653): > | ABSORBANCE (serum 3771): > | ABSORBANCE (serum 3884*): > | ABSORBANCE (serum 3891): > | ABSORBANCE (serum 3935): 0.893 | ABSORBANCE (serum 3945): > | ABSORBANCE (serum 4021*): 0.119 | ABSORBANCE (serum 4288*): > | ABSORBANCE (serum 4364): > | ABSORBANCE (serum 4434): > | ABSORBANCE (serum 4477): > | ABSORBANCE (serum 4489*): > | ABSORBANCE (serum 5149*): > | ABSORBANCE (serum 5164): > | ABSORBANCE (serum 5210): > | ABSORBANCE (serum 5270*): > | ABSORBANCE (serum 5373): > | ABSORBANCE (serum 5453): 0.081 | ABSORBANCE (serum 5766*): > | ABSORBANCE (serum 5931): > | ABSORBANCE (serum 5969*): 0.282 | ABSORBANCE (serum 6111): > | ABSORBANCE (serum 6165): > | ABSORBANCE (serum 6198*): > | ABSORBANCE (serum 6295*): 1.063 | ABSORBANCE (serum 6487): 1.017 | ABSORBANCE (serum 6512*): 0.785 | ABSORBANCE (serum 6627): > | ABSORBANCE (serum 6689*): > | ABSORBANCE (serum 6697): > | ABSORBANCE (serum 6782): 2.091 | ABSORBANCE (serum 6891): 0.614 | ABSORBANCE (serum 6976*): > | ABSORBANCE (serum 6998): > | ABSORBANCE (serum 7007): 2.334 | ABSORBANCE (serum 7120): > | ABSORBANCE (serum 7212): > | ABSORBANCE (serum 7258*): > | ABSORBANCE (serum 7297*): > | ABSORBANCE (serum 7439): > | ABSORBANCE (serum 7443): > | ABSORBANCE (serum DUR*): > | ABSORBANCE (serum ESS*): > | ABSORBANCE (serum HAD): 0.518 | ABSORBANCE (serum VAU*): > | immunoreactivity compared with the other peptides (in words) (summary of Table IV): more immunoreactive than the VAU 22 AA peptide

Reference: US7053175B1, “Synthetic peptides useful in biological assays for detecting infections caused by group O HIV-1 viruses” (Bio-Rad Pasteur, priority 1997, dated 2006)
